Experimental data taken from US5250426A, “Molecules with antibody combining sites that induce asymmetry” (The Scripps Research Institute, priority 1991, dated 1993).

System: monoclonal antibodies induced by Compound A
Assay: Inhibition of the antibody-catalyzed hydrolysis of Compound 1 by free Compound A
Assay type: biochemical, mice
Settings: all three monoclonal antibodies
Procedure: The production of Compound 2 by a monoclonal antibody composition of this invention was assayed at a concentration of 20 μM monoclonal antibody and 1.5 mM Compound 1 in 10 percent dimethylsulfoxide (DMSO)/ATE buffer (0.52M ACES, 0.52M Tris, 0.01M ethanolamine pH 9.0) at 25° C. The initial rate of hydrolysis of Compound 1 by the monoclonal antibodies produced by three hybridomas followed Michaelis-Menten kinetics (Table 1 hereinafter).

CC1(OP(=O)(O)Cc2ccc(CCN)cc2)CCCCC1 [Compound A]
inhibition of the hydrolytic reaction by addition of free Compound A: extensive inhibition
